Measured values as given in US12115178B2, “Acylated active agents and methods of their use for the treatment of autoimmune disorders” (Flagship Pioneering Innovations V, Inc., priority 2018, dated 2024).

Tests used:
[1] = Assay 1. Stability in Simulated Gastric Fluid (SGF); format: in vitro ADME; conditions: SGF pH 1.6 with pepsin, 1 μM, 37° C.
Procedure: Assay 1. Stability of acylated active agents in Simulated Gastric Fluid (SGF). This assay was used to assess the stability of an acylated active agent in a stomach.
Medium was prepared by dissolving 2 g of sodium chloride in 0.6 L in ultrapure water (MilliQ®, Millipore Sigma, Darmstadt, Germany). The pH was adjusted to 1.6 with 1N hydrochloric acid, and the volume was then adjusted to 1 L with purified water.
60 mg FaSSIF powder (Biorelevant™, London, UK) were dissolved in 500 mL buffer (above). Pepsin was added (0.1 mg/mL) (Millipore Sigma, Darmstadt, Germany), and the solution was stirred. The resulting SGF media were used fresh for each experiment.
Test compounds were dissolved in DMSO stock to 1 mM. An aliquot of the DMSO stock solution was removed and diluted in the SGF Media in 15 mL falcon tubes to generate a total compound concentration of 1 μM. A 1 mL aliquot was immediately removed and diluted once with 1 volume of acetonitrile for T0 timepoint. The mixture was sealed and mixed at 37° C. in an incubator. Aliquots (1 mL) were removed at regular intervals and immediately quenched by the addition of 1 volume of acetonitrile. The resulting samples were analyzed by LC/MS to determine degradation rates in SGF.

[2] = Assay 2. Stability in Simulated Intestinal Fluid (SIF); format: in vitro ADME; conditions: SIF pH 6.7 with pancreatin, 1 μM, 37° C.
Procedure: Assay 2. Stability of acylated active agents in Simulated Intestinal Fluid (SIF). This assay was used to assess the stability of an acylated active agent in a small intestine. Phosphate buffer was prepared by dissolving 0.42 g of sodium hydroxide pellets and 3.95 g of monobasic sodium phosphate monohydrate and 6.19 g of sodium chloride in ultrapure water (MilliQ®, Millipore Sigma, Darmstadt, Germany). The pH was adjusted to 6.7 using aq. HCl and aq. NaOH, as necessary, and the solution was diluted with ultrapure water to produce 1 L of the pH 6.7 buffer. 112 mg FaSSIF powder (Biorelevant™, London, UK) was dissolved in 50 mL of the pH 6.7 buffer. 2 to 3 mL of the resulting solution were then added to 500 mg pancreatin (Millipore Sigma, Darmstadt, Germany). The resulting mixture was agitated by finger tapping the vessel containing the mixture until milky suspension formed. At this time, the remainder of the 50 mL FaSSiF/pH 6.7 buffer solution was added. The resulting suspension was flipped upside down 10 times to produce SIF, which was used fresh. Test compounds were dissolved in DMSO stock to 1 mM. An aliquot of the DMSO stock solution was removed and diluted in the SIF media in 15 mL falcon tubes to produce a mixture with a tested compound concentration of 1 μM. A 1 mL aliquot was immediately removed and diluted once with 1 volume of acetonitrile for T0 timepoint. The mixture was sealed and agitated at 37° C. in an incubator. Aliquots (1 mL) were removed at regular intervals and immediately quenched by the addition of 1 volume of acetonitrile. The resulting samples were analyzed by LC/MS to determine degradation rates.

Row | SMILES | Assay 1 (SGF) (% Remaining @ 1 hour) [1] | Assay 2 (SIF) (% @ Remaining 4 hours) [2]
1 | CCC(=O)O[C@@H]1[C@@H](OC(=O)CC)[C@@H](OC(=O)CC)CO[C@H]1O [Compound 127, (3S,4S,5R,6R)-6-hydroxy-4,5-bis(propanoyloxy)oxan-3-yl propanoate] | C (>75% of the tested compound remaining) | B (25-75% of the tested compound remaining)
2 | CCCC(=O)O[C@@H]1[C@H](OC(=O)CCC)[C@H](C)OC(O)[C@H]1OC(=O)CCC (stereo partly drawn) [Compound 136, (3S,4R,5R,6S)-4,5-bis(butanoyloxy)-2-hydroxy-6-methyloxan-3-yl butanoate] | C (>75% of the tested compound remaining) | A (<25% of the tested compound remaining)
3 | CCC(=O)OC[C@H]1OC(O)[C@H](OC(=O)CC)[C@@H](OC(=O)CC)[C@@H]1OC(=O)CC (stereo partly drawn) [Compound 110, [(2R,3R,4S,5R)-6-hydroxy-3,4,5-tris(propanoyloxy)oxan-2-yl]methyl propanoate] | C (>75% of the tested compound remaining) | A (<25% of the tested compound remaining)
4 | O=C(CCc1c[nH]c2ccccc12)O[C@@H]1[C@H](OC(=O)CCc2c[nH]c3ccccc23)C=C(C(=O)O)C[C@H]1OC(=O)CCc1c[nH]c2ccccc12 [Compound 216, (3R,4S,5R)-3,4,5-tris({[3-(1H-indol-3-yl)propanoyl]oxy})cyclohex-1-ene-1-carboxylic acid] | B (25-75% of the tested compound remaining) | B (25-75% of the tested compound remaining)
5 | CCC(=O)O[C@H]1[C@H](OC(=O)CC)[C@H](OC(=O)Cc2c[nH]c3ccccc23)O[C@@H](C)[C@H]1OC(=O)CC [Compound 118, (2S,3S,4R,5R,6S)-2-{[2-(1H-indol-3-yl)acetyl]oxy}-6-methyl-4,5-bis(propanoyloxy)oxan-3-yl propanoate] | C (>75% of the tested compound remaining) | A (<25% of the tested compound remaining)
6 | CCCC(=O)Oc1cc(OC(=O)CCC)c2c(=O)cc(-c3ccc(OC(=O)CCC)c(OC(=O)CCC)c3)oc2c1 [Compound 171, 2-[3,4-bis(butanoyloxy)phenyl]-5-(butanoyloxy)-4-oxo-4H-chromen-7-yl butanoate] | C (>75% of the tested compound remaining) | A (<25% of the tested compound remaining)
7 | CCCC(=O)O[C@@H]1[C@@H](OC(=O)CCC)[C@@H](OC(=O)CCc2c[nH]c3ccccc23)OC[C@@H]1OC(=O)CCC [Compound 81, (2R,3R,4S,5S)-4,5-bis(butanoyloxy)-2-{[3-(1H-indol-3-yl)propanoyl]oxy}oxan-3-yl butanoate] | B (25-75% of the tested compound remaining) | A (<25% of the tested compound remaining)
8 | CCCC(=O)O[C@@H]1[C@@H](OC(=O)CCC)[C@@H](Oc2ccccc2C(=O)O)OC[C@@H]1OC(=O)CCC [Compound 31, 2-(((2R,3R,4S,5S)-3,4,5-tris(butyryloxy)tetrahydro-2H-pyran-2-yl)oxy)benzoic acid] | C (>75% of the tested compound remaining) | A (<25% of the tested compound remaining)
9 | CCC(=O)OC1O[C@@H](C)[C@@H](OC(=O)CC)[C@@H](OC(=O)CC)[C@@H]1OC(=O)CC (stereo partly drawn) [Compound 125, (3S,4R,5R,6S)-6-methyl-3,4,5-tris(propanoyloxy)oxan-2-yl propanoate] | C (>75% of the tested compound remaining) | A (<25% of the tested compound remaining)
10 | CCC(=O)O[C@@H]1[C@@H](OC(=O)CC)[C@H](OC(=O)CC)CO[C@H]1O [Compound 129, (2R,3R,4S,5R)-2-hydroxy-4,5-bis(propanoyloxy)oxan-3-yl propanoate] | C (>75% of the tested compound remaining) | A (<25% of the tested compound remaining)
11 | CCC(=O)O[C@@H]1[C@H](OC(=O)CC)[C@H](C)OC(Oc2ccccc2C(=O)O)[C@H]1OC(=O)CC (stereo partly drawn) [Compound 25, 2-(((3S,4R,5R,6S)-6-methyl-3,4,5-tris(propionyloxy)tetrahydro-2H-pyran-2-yl)oxy)benzoic acid] | C (>75% of the tested compound remaining) | C (>75% of the tested compound remaining)
12 | CCCC(=O)O[C@H]1[C@@H](OC(=O)CCC)COC(O)[C@@H]1OC(=O)CCC (stereo partly drawn) [Compound 151, (3S,4S,5R)-4,5-bis(butanoyloxy)-6-hydroxyoxan-3-yl butanoate] | C (>75% of the tested compound remaining) | A (<25% of the tested compound remaining)
13 | CCC(=O)O[C@@H]1[C@@H](OC(=O)CC)[C@H](Oc2ccccc2C(=O)O)OC[C@@H]1OC(=O)CC [Compound 26, 2-(((2S,3R,4S,5S)-3,4,5-tris(propionyloxy)tetrahydro-2H-pyran-2-yl)oxy)benzoic acid] | C (>75% of the tested compound remaining) | A (<25% of the tested compound remaining)
14 | CCC(=O)Oc1cc(OC(=O)CC)c2c(=O)c(OC(=O)CC)c(-c3cc(OC(=O)CC)c(OC(=O)CC)c(OC(=O)CC)c3)oc2c1 [Compound 13, [4-oxo-3,5-di(propanoyloxy)-2-[3,4,5-tri(propanoyloxy)phenyl]chromen-7-yl] propanoate] | B (25-75% of the tested compound remaining) | A (<25% of the tested compound remaining)
15 | CCCC(=O)Oc1ccc(C2CC(=O)c3c(OC(=O)CCC)cc(OC(=O)CCC)cc3O2)cc1 (stereo not drawn) [Compound 10, [4-[5,7-di(butanoyloxy)-4-oxo-chroman-2-yl]phenyl] butanoate] | B (25-75% of the tested compound remaining) | A (<25% of the tested compound remaining)
16 | CCCC(=O)O[C@@H]1[C@H](OC(=O)CCC)[C@H](C)OC(Oc2ccc(N)cc2C(=O)O)[C@H]1OC(=O)CCC (stereo partly drawn) [Compound 41, 5-amino-2-(((3S,4R,5R,6S)-3,4,5-tris(butyryloxy)-6-methyltetrahydro-2H-pyran-2-yl)oxy)benzoic acid] | C (>75% of the tested compound remaining) | C (>75% of the tested compound remaining)
17 | O=C(CCc1c[nH]c2ccccc12)Oc1cc(C(=O)O)cc(OC(=O)CCc2c[nH]c3ccccc23)c1OC(=O)CCc1c[nH]c2ccccc12 [Compound 202, 3,4,5-tris({[3-(1H-indol-3-yl)propanoyl]oxy})benzoic acid] | A (<25% of the tested compound remaining) | C (>75% of the tested compound remaining)
18 | CCC(=O)O[C@@H]1[C@@H](OC(=O)CC)[C@H](OC(=O)CCc2c[nH]c3ccccc23)OC[C@H]1OC(=O)CC [Compound 132, (2S,3R,4S,5R)-3,4,5-tris(propanoyloxy)oxan-2-yl 3-(1H-indol-3-yl)propanoate] | C (>75% of the tested compound remaining) | 
19 | CCC(=O)O[C@@H]1[C@@H](OC(=O)CC)[C@@H](OC(=O)CCc2c[nH]c3ccccc23)OC[C@H]1OC(=O)CC [Compound 75, (2R,3R,4S,5R)-3,4,5-tris(propanoyloxy)oxan-2-yl 3-(1H-indol-3-yl)propanoate] | C (>75% of the tested compound remaining) | 
